{"source": "patent EP0918774B9", "about": "“ANDROGEN RECEPTOR MODULATOR COMPOUNDS AND METHODS” (LIGAND PHARMACEUTICALS INCORPORATED, priority 1996, dated 1997)", "key": {"PR [1]": {"biological_target": "T1, PR (Homo sapiens, UniProt P06401)", "T1 sequence (P06401 1-933)": "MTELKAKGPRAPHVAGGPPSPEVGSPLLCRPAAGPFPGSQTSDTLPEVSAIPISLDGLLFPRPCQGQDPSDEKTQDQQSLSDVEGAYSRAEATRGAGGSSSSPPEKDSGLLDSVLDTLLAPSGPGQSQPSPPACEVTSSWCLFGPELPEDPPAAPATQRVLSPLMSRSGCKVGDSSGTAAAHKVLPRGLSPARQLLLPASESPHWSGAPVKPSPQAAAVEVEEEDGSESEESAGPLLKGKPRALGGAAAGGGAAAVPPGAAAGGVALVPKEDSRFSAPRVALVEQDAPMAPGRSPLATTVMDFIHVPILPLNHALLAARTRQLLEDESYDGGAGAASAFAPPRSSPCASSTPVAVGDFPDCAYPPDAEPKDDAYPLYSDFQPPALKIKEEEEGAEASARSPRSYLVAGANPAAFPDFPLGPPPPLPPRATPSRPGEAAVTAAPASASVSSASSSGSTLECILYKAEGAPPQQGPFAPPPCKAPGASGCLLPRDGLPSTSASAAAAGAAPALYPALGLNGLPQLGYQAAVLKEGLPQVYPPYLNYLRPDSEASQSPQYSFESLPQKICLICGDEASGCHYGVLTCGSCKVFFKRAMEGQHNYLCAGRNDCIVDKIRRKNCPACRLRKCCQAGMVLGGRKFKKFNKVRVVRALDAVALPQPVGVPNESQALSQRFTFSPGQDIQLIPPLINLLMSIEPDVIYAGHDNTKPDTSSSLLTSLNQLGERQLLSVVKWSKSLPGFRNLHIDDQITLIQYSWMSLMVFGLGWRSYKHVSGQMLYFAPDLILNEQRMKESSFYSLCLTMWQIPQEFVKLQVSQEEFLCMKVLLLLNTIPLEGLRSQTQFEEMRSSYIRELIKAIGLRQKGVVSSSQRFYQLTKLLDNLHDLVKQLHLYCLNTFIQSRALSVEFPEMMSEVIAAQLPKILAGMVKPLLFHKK", "assay": "cell-based"}, "PR [2]": {"biological_target": "T1, PR", "assay": "Co-transfection assay, PR agonist mode", "type": "cell-based", "set-up": "expressed in transfected cells; host or cells: CV-1 cells", "procedure": "(§1) CV-1 cells (African green monkey kidney fibroblasts) were cultured in the presence of Dulbecco's Modified Eagle Medium (DMEM) supplemented with 10% charcoal resinstripped fetal bovine serum then transferred to 96-well microtiter plates one day prior to transfection.\n(§2) Three to four replicates were used for each sample.\n(§3) After 40 hours, the cells were washed with PBS, lysed with a Triton X-100-based buffer and assayed for LUC and β-Gal activities using a luminometer or spectrophotometer, respectively. For each replicate, the normalized response (NR) was calculated as: LUC response/β-Gal rate where β-Gal rate = β-Gal•1x10^-5/β-Gal incubation time."}, "human AR [3]": {"biological_target": "T2, human AR (Homo sapiens, UniProt P10275)", "T2 construct": "expressed in transfected cells; host or cells: CV-1 cells (African green monkey kidney fibroblasts), transient calcium phosphate transfection", "T2 sequence (P10275 1-920)": "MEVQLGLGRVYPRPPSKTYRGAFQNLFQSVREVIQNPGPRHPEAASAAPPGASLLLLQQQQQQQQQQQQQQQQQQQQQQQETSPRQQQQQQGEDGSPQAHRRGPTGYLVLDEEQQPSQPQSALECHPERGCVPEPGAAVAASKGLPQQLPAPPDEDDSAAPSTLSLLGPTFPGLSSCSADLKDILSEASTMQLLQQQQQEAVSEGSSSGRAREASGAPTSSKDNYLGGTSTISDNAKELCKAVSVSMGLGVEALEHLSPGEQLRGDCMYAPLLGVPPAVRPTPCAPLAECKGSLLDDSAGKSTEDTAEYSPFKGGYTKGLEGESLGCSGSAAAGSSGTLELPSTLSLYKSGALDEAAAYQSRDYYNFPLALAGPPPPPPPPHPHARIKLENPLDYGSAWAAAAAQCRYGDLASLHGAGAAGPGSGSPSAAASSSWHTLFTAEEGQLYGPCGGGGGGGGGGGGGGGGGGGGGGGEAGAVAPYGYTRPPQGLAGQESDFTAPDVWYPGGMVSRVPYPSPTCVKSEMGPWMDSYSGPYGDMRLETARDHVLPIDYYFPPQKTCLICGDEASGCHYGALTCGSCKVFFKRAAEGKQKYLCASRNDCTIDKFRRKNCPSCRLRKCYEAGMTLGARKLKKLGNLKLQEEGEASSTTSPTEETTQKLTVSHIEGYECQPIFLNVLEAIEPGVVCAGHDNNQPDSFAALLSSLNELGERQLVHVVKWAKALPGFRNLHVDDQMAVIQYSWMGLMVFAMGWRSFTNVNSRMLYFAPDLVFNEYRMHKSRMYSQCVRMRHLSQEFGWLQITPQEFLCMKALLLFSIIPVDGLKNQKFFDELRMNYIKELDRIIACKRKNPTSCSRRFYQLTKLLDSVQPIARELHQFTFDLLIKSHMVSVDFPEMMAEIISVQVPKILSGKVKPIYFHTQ", "assay": "cell-based", "type": "cell-based", "settings": "for AR Antagonist CV-1 Cells Efficacy (%): % of maximal inhibition, fixed DHT at EC50; for AR Agonist CV-1 Cells Efficacy (%): percent maximal response relative to reference agonist DHT; for AR agonist/antagonist profile (in words): co-transfection assay, summary of Tables 1-2", "source_text": "The co-transfection assay provides a method for identifying functional agonists and partial agonists which mimic, or antagonists which inhibit, the effect of native hormones, and quantifying their activity for responsive IR proteins. In this regard, the co-transfection assay mimics an in vivo system in the laboratory. Importantly, activity in the co-transfection assay correlates very well with known in vivo activity, such that the co-transfection assay functions as a qualitative and quantitative predictor of a tested compounds in vivo pharmacology. See, e.g., T. Berger et al. 41 J. Steroid Biochem. Molec.\nas §1\nThe reporter plasmid, MTV-LUC, contains the cDNA for firefly luciferase (LUC) under control of the mouse mammary tumor virus (MTV) long terminal repeat, a conditional promoter containing an androgen response element. See e.g, Berger et al. supra. In addition, pRS-β-Gal, coding for constitutive expression of E. colβ-galactosidase (β-Gal), was included as an internal control for evaluation of transfection efficiency and compound toxicity.\nas §2, §3"}, "human AR [4]": {"biological_target": "T2, human AR", "assay": "cell-based", "type": "binding"}, "ER [5]": {"biological_target": "T3, ER (Homo sapiens, UniProt P03372)", "T3 construct": "expressed in transfected cells; host or cells: CV-1 cells", "T3 sequence (P03372 whole entry)": "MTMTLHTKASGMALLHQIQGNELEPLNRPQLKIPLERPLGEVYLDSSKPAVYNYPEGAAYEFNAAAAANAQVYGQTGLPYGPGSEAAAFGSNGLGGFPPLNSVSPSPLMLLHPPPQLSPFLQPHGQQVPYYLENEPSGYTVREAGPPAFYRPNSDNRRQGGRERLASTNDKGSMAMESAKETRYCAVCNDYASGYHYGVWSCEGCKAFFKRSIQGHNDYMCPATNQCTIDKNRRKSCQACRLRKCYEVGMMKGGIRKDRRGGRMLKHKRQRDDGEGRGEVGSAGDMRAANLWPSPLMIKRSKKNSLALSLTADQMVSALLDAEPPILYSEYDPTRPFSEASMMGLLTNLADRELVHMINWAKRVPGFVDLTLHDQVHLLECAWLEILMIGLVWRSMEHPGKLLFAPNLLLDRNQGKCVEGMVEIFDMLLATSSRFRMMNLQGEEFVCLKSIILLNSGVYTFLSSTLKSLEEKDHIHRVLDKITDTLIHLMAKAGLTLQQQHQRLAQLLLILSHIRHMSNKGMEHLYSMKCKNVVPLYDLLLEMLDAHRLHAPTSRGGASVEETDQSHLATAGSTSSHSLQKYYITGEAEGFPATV", "assay": "Co-transfection assay, ER agonist mode", "type": "cell-based", "procedure": "as §1, §2, §3"}, "ER [6]": {"biological_target": "T3, ER", "assay": "Co-transfection assay, ER antagonist mode", "type": "cell-based", "procedure": "as §1, §2, §3"}, "GR": {"biological_target": "T4, GR (Homo sapiens, UniProt P04150)", "T4 sequence (P04150 1-777)": "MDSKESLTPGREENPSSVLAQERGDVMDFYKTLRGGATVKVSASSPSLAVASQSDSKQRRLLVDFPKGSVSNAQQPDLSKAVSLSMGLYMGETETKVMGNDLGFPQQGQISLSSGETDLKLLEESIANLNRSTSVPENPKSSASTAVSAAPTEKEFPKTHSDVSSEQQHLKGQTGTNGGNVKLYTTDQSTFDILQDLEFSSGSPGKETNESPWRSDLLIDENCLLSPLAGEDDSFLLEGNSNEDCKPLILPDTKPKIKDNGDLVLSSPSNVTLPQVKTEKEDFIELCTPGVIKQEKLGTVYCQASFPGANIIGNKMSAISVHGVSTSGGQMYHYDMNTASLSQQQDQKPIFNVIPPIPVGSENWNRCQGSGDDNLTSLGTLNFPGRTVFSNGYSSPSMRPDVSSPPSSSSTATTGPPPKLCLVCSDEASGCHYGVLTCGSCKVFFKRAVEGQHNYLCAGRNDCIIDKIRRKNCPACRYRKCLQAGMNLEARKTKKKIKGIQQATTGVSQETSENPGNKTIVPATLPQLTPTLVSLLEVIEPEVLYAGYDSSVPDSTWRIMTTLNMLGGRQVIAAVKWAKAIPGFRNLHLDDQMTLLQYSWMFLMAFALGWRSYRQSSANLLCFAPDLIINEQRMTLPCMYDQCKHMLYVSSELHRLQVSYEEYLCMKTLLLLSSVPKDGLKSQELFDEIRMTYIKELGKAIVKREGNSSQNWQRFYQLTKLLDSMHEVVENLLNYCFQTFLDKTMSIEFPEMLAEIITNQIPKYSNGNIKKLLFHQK", "assay": "cell-based", "procedure": "as §1, §2, §3"}}, "note": "Like-named read-outs stand apart in the source and are kept apart here."}
{"compound": "C[C@]12CCC(=O)C[C@@H]1CC[C@@H]1[C@@H]2CC[C@]2(C)[C@@H](O)CC[C@@H]12", "note": "[DHT, dihydrotestosterone, reference compound]", "values": [{"measurement": "IC50", "setting": "PR [1]", "result": 1.8, "unit": "µM"}, {"measurement": "EC50", "setting": "PR [2]", "result": "> 10", "unit": "µM"}]}
{"compound": "Cn1c(=O)c(F)c(C(F)(F)F)c2cc3c(cc21)N1CCCC1(C)CC3", "note": "(racemic) [Compound 104, (R/S)-3-Fluoro-6,7,7a,11-tetrahydro-1,7a-dimethyl-4-trifluoromethyl-2-pyridono[5.6-g]pyrrolidino[1,2-a]quinoline]", "values": [{"measurement": "EC50", "setting": "human AR [3]", "result": "> 10", "unit": "µM"}, {"measurement": "AR Antagonist CV-1 Cells Efficacy (%)", "setting": "human AR [3]; na = not active", "result": 86, "unit": "%"}, {"measurement": "AR Agonist CV-1 Cells Efficacy (%)", "setting": "human AR [3]; na = not active", "result": "na (not active (i.e. efficacy of <20 and potency of >10,000))"}, {"measurement": "EC50", "setting": "human AR [3]; read-out: AR Potency Agon, Table 2, na = not active", "result": "> 10", "unit": "µM"}, {"measurement": "Ki", "setting": "human AR [4]", "result": 0.159, "unit": "µM"}, {"measurement": "EC50", "setting": "PR [2]", "result": "> 10", "unit": "µM"}]}
{"compound": "CC1(C)CCc2cc3c(C(F)(F)F)c(F)c(=O)[nH]c3cc2N1", "note": "[Compound 105, 7-Fluoro-1,2,3,4-tetrahydro-2,2-dimethyl-6-trifluoromethyl-8-pyridono[5,6-g]quinoline]", "values": [{"measurement": "EC50", "setting": "ER [5]", "result": "> 10", "unit": "µM"}, {"measurement": "AR Antagonist CV-1 Cells Efficacy (%)", "setting": "human AR [3]; na = not active", "result": 31, "unit": "%"}, {"measurement": "AR agonist/antagonist profile (in words)", "setting": "human AR [3]", "result": "mixed AR agonists/antagonists"}, {"measurement": "AR Agonist CV-1 Cells Efficacy (%)", "setting": "human AR [3]; na = not active", "result": 48, "unit": "%"}, {"measurement": "IC50", "setting": "ER [6]", "result": 0.034, "unit": "µM"}, {"measurement": "IC50", "setting": "GR", "result": "> 10", "unit": "µM"}, {"measurement": "Ki", "setting": "human AR [4]", "result": 0.026, "unit": "µM"}, {"measurement": "EC50", "setting": "PR [2]", "result": "> 10", "unit": "µM"}]}
{"compound": "Cn1c(=O)cc(C(F)(F)F)c2cc3c(cc21)N1CCCC1(C)CC3", "note": "(racemic) [Compound 103, (R/S)-6,7,7a,11-Tetrahydro-1,7a-dimethyl-4-trifluoromethyl-2-pyridono[5,6-g]pyrrolidino[1,2-a]quinoline]", "values": [{"measurement": "EC50", "setting": "ER [5]", "result": "> 10", "unit": "µM"}, {"measurement": "IC50", "setting": "ER [6]", "result": "> 10", "unit": "µM"}, {"measurement": "IC50", "setting": "GR", "result": "> 10", "unit": "µM"}, {"measurement": "EC50", "setting": "PR [2]", "result": "> 10", "unit": "µM"}]}
{"compound": "CC1=CC(C)(C)Nc2cc3[nH]c(=O)c(F)c(C(F)(F)F)c3cc21", "note": "[Compound 111, 7-Fluoro-1,2-dihydro-2,2,4-trimethyl-6-trifluoromethyl-8-pyridono[5,6-g]quinoline]", "values": [{"measurement": "AR Antagonist CV-1 Cells Efficacy (%)", "setting": "human AR [3]; na = not active", "result": 50, "unit": "%"}, {"measurement": "AR agonist/antagonist profile (in words)", "setting": "human AR [3]", "result": "mixed AR agonists/antagonists"}, {"measurement": "AR Agonist CV-1 Cells Efficacy (%)", "setting": "human AR [3]; na = not active", "result": 20, "unit": "%"}, {"measurement": "Ki", "setting": "human AR [4]", "result": 0.804, "unit": "µM"}]}
